For 21 molecules, IC50 results are on record in BindingDB's records for doi:10.1021/jm960305h (National Institute of Diabetes and Digestive and Kidney …, 1997).

A short description of the first assay: Binding affinity against sigma receptor using radioligand ([3H](+)-pentazocine) binding assay.
On to `c1ccc(C(OCCN2CCN(CCOC(c3ccccc3)c3ccccc3)CC2)c2ccccc2)cc1` [1,4-Bis-(2-benzhydryloxy-ethyl)-piperazine], for which the IC50 was above 10000 nM. Same read-out and setting: to `c1ccc(CCCN2CCCN(CCOC(c3ccccc3)c3ccccc3)CC2)cc1` [1-(2-Benzhydryloxy-ethyl)-4-(3-phenyl-propyl)-[1,4]diazepane] belongs 26 nM. `c1ccc(CCCN2CCCCN(CCOC(c3ccccc3)c3ccccc3)CC2)cc1` [1-(2-Benzhydryloxy-ethyl)-4-(3-phenyl-propyl)-[1,4]diazocane] yielded a 50% inhibitory concentration (IC50) of 180 nM.

The molecule `c1ccc(C(OCCN2CCNCC2)c2ccccc2)cc1` [1-(2-Benzhydryloxy-ethyl)-piperazine] came in with an IC50 of 1480 nM. Still for that read-out and setting: to `Fc1ccc(C(OCCN2CCNCC2)c2ccc(F)cc2)cc1` [1-{2-[Bis-(4-fluoro-phenyl)-methoxy]-ethyl}-piperazine] belongs 965 nM; to `c1ccc(CCCN2CCCCC(NCCOC(c3ccccc3)c3ccccc3)C2)cc1` (stereo unspecified) [(2-Benzhydryloxy-ethyl)-[1-(3-phenyl-propyl)-azepan-3-yl]-amine], 78 nM; to `C[C@@H]1CN(CCOC(c2ccccc2)c2ccccc2)[C@@H](C)CN1CCOC(c1ccccc1)c1ccccc1` [(2S,5R)-1,4-Bis-(2-benzhydryloxy-ethyl)-2,5-dimethyl-piperazine], 4000 nM.

In turn, `C[C@@H]1CN(CCOC(c2ccc(F)cc2)c2ccc(F)cc2)[C@@H](C)CN1CCOC(c1ccc(F)cc1)c1ccc(F)cc1` [(2S,5R)-1,4-Bis-{2-[bis-(4-fluoro-phenyl)-methoxy]-ethyl}-2,5-dimethyl-piperazine] gave an IC50 of 3640 nM. Still for that read-out and setting: to `C[C@@H]1CN(CCOC(c2ccccc2)c2ccccc2)[C@@H](C)CN1` [(2S,5R)-1-(2-Benzhydryloxy-ethyl)-2,5-dimethyl-piperazine] belongs 67 nM.

Consider `C[C@@H]1CN(CCOC(c2ccc(F)cc2)c2ccc(F)cc2)[C@@H](C)CN1` [(2S,5R)-1-{2-[Bis-(4-fluoro-phenyl)-methoxy]-ethyl}-2,5-dimethyl-piperazine], for which the IC50 is 65 nM. This IC50 and that of the molecule before are within 1.5-fold of each other. With `C[C@@H]1CN(CCCc2ccccc2)[C@@H](C)CN1CCCc1ccccc1` [(2S,5R)-2,5-Dimethyl-1,4-bis-(3-phenyl-propyl)-piperazine], the IC50 is 8.5 nM. Still for that read-out and setting: under `NCCCCNCCOC(c1ccccc1)c1ccccc1` [N*1*-(2-Benzhydryloxy-ethyl)-butane-1,4-diamine] stands above 10000 nM. Still for that read-out and setting: under `c1ccc(CCCNCCCCNCCOC(c2ccccc2)c2ccccc2)cc1` [N-(2-Benzhydryloxy-ethyl)-N'-(3-phenyl-propyl)-butane-1,4-diamine] stands 1050 nM; under `CN(CCCc1ccccc1)CCN(C)CCOC(c1ccccc1)c1ccccc1` [N-(2-Benzhydryloxy-ethyl)-N,N'-dimethyl-N'-(3-phenyl-propyl)-ethane-1,2-diamine], 34 nM; under `CNCCN(C)CCOC(c1ccccc1)c1ccccc1` [N-(2-Benzhydryloxy-ethyl)-N,N'-dimethyl-ethane-1,2-diamine], 231 nM. Same read-out and setting: under `c1ccc(CCCNC2CCCCN(CCOC(c3ccccc3)c3ccccc3)C2)cc1` (stereo unspecified) [[1-(2-Benzhydryloxy-ethyl)-azepan-3-yl]-(3-phenyl-propyl)-amine] stands 83 nM.

Assay in the next assay: as above
This is another data set of the same source.
Molecule `c1ccc(CCCN2CCN(CCCc3ccccc3)CC2)cc1` [1,4-Bis-(3-phenyl-propyl)-piperazine] came in with an IC50 of 0.5 nM.

`Fc1ccc(C(OCCN2CCN(CCOC(c3ccc(F)cc3)c3ccc(F)cc3)CC2)c2ccc(F)cc2)cc1` [1,4-Bis-{2-[bis-(4-fluoro-phenyl)-methoxy]-ethyl}-piperazine] had an IC50 above 10000 nM. Still for that read-out and setting: to `c1ccc(CCCN2CCNCC2)cc1` [1-(3-Phenyl-propyl)-piperazine] belongs 109 nM; to `C[C@@H]1CN(CCOC(c2ccccc2)c2ccccc2)[C@@H](C)CN1CCCc1ccccc1` [(2S,5R)-1-(2-Benzhydryloxy-ethyl)-2,5-dimethyl-4-(3-phenyl-propyl)-piperazine], 8.6 nM. On the same count and under the same terms, to `C[C@@H]1CN(CCCc2ccccc2)[C@@H](C)CN1` [(2S,5R)-2,5-Dimethyl-1-(3-phenyl-propyl)-piperazine] belongs 8.5 nM.

One may read the IC50 as the point on the concentration scale where inhibition reaches its midpoint. The low end stands for greater potency, the high end for weaker potency.
